# Reference: US8691849B2, “3-azabicyclo[3.1.0]hexyl derivatives as modulators of metabotropic glutamate receptors” (Janssen Pharmaceuticals, Inc., priority 2008, dated 2014)
# Key:
# [1] = target: T1, human mGluR2 receptor (Homo sapiens, UniProt Q14416); assay: [35S]GTPγS binding assay (PAM assay), membranes from CHO cells transfected with human mGluR2; assay type: biochemical; settings: in presence of glutamate at predetermined EC25 concentration; averages of duplicate values of 11-concentration response curves; read-out: GTPγS - hR2 PAM pEC50 (converted)
# T1 construct: expressed in transfected cells; host or cells: CHO cells
# T1 sequence (Q14416 19-872): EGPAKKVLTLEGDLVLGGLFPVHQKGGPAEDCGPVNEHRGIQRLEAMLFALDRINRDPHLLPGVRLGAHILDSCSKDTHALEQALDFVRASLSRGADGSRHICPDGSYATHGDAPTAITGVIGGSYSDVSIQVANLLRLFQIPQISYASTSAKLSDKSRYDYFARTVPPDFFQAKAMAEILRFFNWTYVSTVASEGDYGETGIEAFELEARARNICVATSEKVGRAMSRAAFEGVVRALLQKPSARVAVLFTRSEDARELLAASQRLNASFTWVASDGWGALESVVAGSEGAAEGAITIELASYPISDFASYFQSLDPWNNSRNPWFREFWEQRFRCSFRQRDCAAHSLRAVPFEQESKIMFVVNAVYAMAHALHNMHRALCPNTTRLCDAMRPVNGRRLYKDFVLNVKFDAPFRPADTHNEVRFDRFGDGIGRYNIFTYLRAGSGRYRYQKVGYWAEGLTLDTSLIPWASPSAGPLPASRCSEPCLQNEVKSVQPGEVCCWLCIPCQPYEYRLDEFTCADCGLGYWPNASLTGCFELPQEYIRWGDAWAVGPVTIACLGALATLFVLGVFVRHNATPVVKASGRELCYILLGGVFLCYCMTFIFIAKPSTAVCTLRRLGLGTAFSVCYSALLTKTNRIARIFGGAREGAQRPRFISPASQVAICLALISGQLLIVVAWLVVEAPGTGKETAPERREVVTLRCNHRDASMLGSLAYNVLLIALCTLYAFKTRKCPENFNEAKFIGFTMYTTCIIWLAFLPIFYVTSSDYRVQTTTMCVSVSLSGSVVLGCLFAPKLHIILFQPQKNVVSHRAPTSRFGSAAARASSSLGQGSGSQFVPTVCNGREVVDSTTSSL
# From the text: The compounds provided in the present invention are positive allosteric modulators of mGluR2. These compounds appear to potentiate glutamate responses by binding to an allosteric site other than the glutamate binding site. The response of mGluR2 to a concentration of glutamate is increased when compounds of Formula (I) are present. Compounds of Formula (I) are expected to have their effect substantially at mGluR2 by virtue of their ability to enhance the function of the receptor. The behaviour of positive allosteric modulators tested at mGluR2 using the [^35S]GTPγS binding assay method described below and which is suitable for the identification of such compounds, and more particularly the compounds according to Formula (I), are shown in Table 2.
# The [^35S]GTPγS binding assay is a functional membrane-based assay used to study G-protein coupled receptor (GPCR) function whereby incorporation of a non-hydrolysable form of GTP, [^35S]GTPγS (guanosine 5′-triphosphate, labelled with […] ^35S), is measured. The G-protein α subunit catalyzes the exchange of guanosine 5′-diphosphate (GDP) by guanosine triphosphate (GTP) and on activation of the GPCR by an agonist, [^35S]GTPγS, becomes incorporated and cannot be cleaved to continue the exchange cycle (Harper (1998) Current Protocols in Pharmacology 2.6.1-10, John Wiley & Sons, Inc.). […] Here we describe the use of the [^35S]GTPγS binding assay using membranes from cells transfected with the human mGluR2 receptor and adapted from Schaffhauser et al ((2003) Molecular Pharmacology 4:798-810) for the detection of the positive allosteric modulation (PAM) properties of the compounds of this invention.
# CHO-cells were cultured to pre-confluence and stimulated with 5 mM butyrate for 24 hours, prior to washing in PBS, and then collected by scraping in homogenisation buffer (50 mM Tris-HCl buffer, pH 7.4, 4° C.). […] Protein concentration was determined by the Bradford method (Bio-Rad, USA) with bovine serum albumin as standard.
# Measurement of mGluR2 positive allosteric modulatory activity of test compounds in membranes containing human mGluR2 was performed using frozen membranes that were thawed and briefly homogenized prior to pre-incubation in 96-well microplates (15 μg/assay well, 30 minutes, 30° C.) in assay buffer (50 mM HEPES pH 7.4, 100 mM NaCl, 3 mM MgCl2, 50 μM GDP, 10 μg/ml saponin,) with increasing concentrations of positive allosteric modulator (from 0.3 nM to 50 μM) and either a minimal pre-determined concentration of glutamate (PAM assay), or no added glutamate. […] Filters were then air-dried, and 40 μl of liquid scintillation cocktail (Microscint-O) was added to each well, and membrane-bound [^35S]GTPγS was measured in a 96-well scintillation plate reader (Top-Count, Perkin-Elmer, USA). […]
Compound,EC50 [1] [µM],melting point [°C]
"O=c1c(Cl)c(N2CC3[C@H](C2)[C@H]3c2ccccc2)ccn1CC1CC1 (stereo partly drawn) [Compound E1, (2aα,3α,3aα)-3-Chloro-1-cyclopropylmethyl-4-(6-phenyl-3-aza-bicyclo[3.1.0]hex-3-yl)-1H-pyridin-2-one]",0.275,172.2
CCCCn1ccc(N2C[C@@H]3[C@@H](COc4cc(Cl)ccc4Cl)[C@@H]3C2)c(Cl)c1=O [Compound E2],0.123,–
CCCCn1ccc(N2C[C@@H]3[C@H](COc4cc(Cl)ccc4Cl)[C@@H]3C2)c(Cl)c1=O [Compound E3],0.126,–
"CCCCn1ccc(N2C[C@@H]3[C@H](C2)[C@H]3c2ccccc2)c(Cl)c1=O [Compound E4, (2aα,3α,3aα)-1-Butyl-3-chloro-4-(6-phenyl-3-aza-bicyclo[3.1.0]hex-3-yl)-1H-pyridin-2-one]",0.0891,185.9
